# Test results from patent US10336757B2, “Treatment of neurodegenerative diseases through inhibition of HSP90” (Sloan-Kettering Institute for Cancer Research, priority 2006, dated 2019).
# Columns and labels:
# P-glycoprotein = P-glycoprotein (Homo sapiens (Human), UniProt P08183); assay: P-glycoprotein substrate status; assay type: in vitro ADME; details: purine scaffold therapeutic
# [1] = system: p35 and tau phosphorylation; assay: Five day PU-DZ8 treatment of nine-month old JNPL3 (P301L tau) mice, whole brain; assay type: in vivo
# Text: Transgenic mice: Transgenic mice, JNPL3 line (59) overexpressing mutant human tau (P301L, 4R0N) were used in this study, Mice were heterozygous and on a mixed hybrid genetic background composed of C57BL/DBA2/SW, as published in ref. 59. These mice develop NFTs in the basal telencephalon, diencephalon, brainstem, and spinal cord, with severe pathology accompanied by degeneration in the spinal cord leading to dystonia, paralysis, and death in mice>12 months in age. Nine month-old male JNPL3 mice (n=2) were treated intraperitoneally with PU-DZ8 or vehicle for 5 days. Mice were sacrificed 12 h after last treatment by cervical dislocation under anesthesia.
# To further examine the effect of Hsp90 on tau phosphorylation, we used the JNPL3 line of mice expressing mutant (P301L) tau protein (59). Genetic analyses have linked mutations in the tau gene to FTDP-17 (60, 61). Over 20 distinct pathogenic mutations have been identified, with P301L as the most common mutation in tauophaties (33). […] The tau protein in JNPL3 is predominantly human and is phosphorylated at multiple sites: T181 (AT270), S202/T205 (AT8), T212 (AT100), T231 (AT180), S262, S396/S404, S409 and 5422 (59, 62). […] The degree of p35 expression translated well into alleviation of phosphorylation. […] However, in mice where effects were more prominent and p35 expression declined to approximately 20% as compared to control, a significant effect on tau phosphorylation at S202/T205 and T212/S214 and a 50% reduction on T231 was observed. We could not detect a significant amount of tau phosphorylation at T181, site found to be hyperphosphorylated in PHF, tangles and neurofilaments (65). Again, whole brain expression of cdk5 was not affected (FIG. 3).
# [2] = cited from earlier work
# [3] = system: mTau expression and phosphorylation, p35; assay: 30 day Hsp90 inhibitor treatment of JNPL3 mice; assay type: in vivo; details: 30 days
# Description: JNPL3 female mice 6.5 months of age were treated for 30 days, 5 day/week, with the Hsp90 inhibitor PU-DZ8 (FIG. 5) or vehicle, or sacrificed for time zero, n=4/group. Brains were divided in subcortical and cortical regions and processed using the Greenberg and Davies extraction protocol. (77) Sarkosyl soluble fractions (S1) were analyzed by WB for p35 and Hsp70, and for tau epitopes found abnormally hyperphosphorylated in AD brains such as: 5202 and T205 recognized by ATB, T181 by AT270, T231 by AT180. These are putative cdk5/p35 sites. Protein bands were normalized to Hsp90 and plotted as relative units. […].
# To investigate whether modulation of mTau could be sustained over a longer Hsp90 inhibitor-treatment period, without being toxic to mice, JNPL3 mice were subjected for 30 days to these agents. Female JNPL3 mice 6.5 months of age (n=10) were administered i.p. vehicle (n=5) or one of the Hsp90 inhibitors, PU24FC1 (200 mg/kg) or PU-DZ8 (75 mg/kg) (n=5), on a daily, five-times per week schedule and animals were sacrificed at 8 h following the last administered dose of inhibitor. […] Furthermore, no visible internal organ damage was detected at sacrifice upon gross inspection. Both S1 and P3 fractions extracted from the subcortical brain region of these mice were analyzed for mTau expression and phosphorylation.
# [4] = system: p35 and Tau phosphorylation on Ser202; assay: One dose PU-DZ8 in hTau mice, cortical S1 fractions; assay type: in vivo, mouse; details: 75 mg/kg i.p.
# Description: The majority of Tau pathology in hTau mice is located in the cortical brain region. These mice express six isoforms of non-mutant human Tau, but develop AD-like Tau-pathology. Heat-stable fractions (S1) prepared from cortical homogenates of these mice indicate an age-related accumulation of Tau phosphorylated at putative cdk5 sites. […] Aggregate-free Tau (S1) fractions were prepared from the cortical region of these mice and human Tau levels assessed by immunobloting with an antibody specific for 3-repeat domain Tau (RD3). By analogy to experiments on primary neuronal cultures and WT Tau transfected cells, the Hsp90 inhibitor had no effect on soluble WT Tau expression. […] The monoclonal antibody CP13 is commonly used to detect Tau pathology in both early and more advanced stages of Tau aggregate accumulation (41).
# [5] = Experimentally determined logP by RP-HPLC; assay type: physicochemical; details: using RP-HPLC
# Text: Compounds of this type may also be provided with a degradable or cleavable linker, such that monomeric agents are provided in vivo. In this embodiment, the dimeric form need not retain activity or the ability to cross the blood brain barrier, and the nature of the linker therefore is not relevant to activity, only to the ability to form active monomeric species. In general, moderately lipophilic drugs such as PUs cross the BBB by passive diffusion. A good structural understanding for the BBB permeability is still lacking, but several parameters are believed to facilitate such behavior. Lipophilicity was the first of the descriptors to be identified as important for CNS penetration. […] The mean value for ClogP for the marketed CNS drugs is 2.5. […] The rules for molecular weight in CNS drugs have been reviewed, where small molecules may undergo significant passive lipid-mediated transport through the blood brain barrier, when the molecular mass is kept in or below a 400- to 600-Da range (90). PU-DZ8 has a MW of 512. All the QSAR equations emphasize the importance of hydrogen bonding —CNS penetration requires 5 or less hydrogen bond acceptors (91). PU-DZ8 has 4. […] PSA has been used as a predictor for BBB penetration by many investigators (92). In general, drugs aimed at the CNS tend to have lower polar surface areas than other classes (93,94). […]
# Chain of P-glycoprotein (P08183 whole entry): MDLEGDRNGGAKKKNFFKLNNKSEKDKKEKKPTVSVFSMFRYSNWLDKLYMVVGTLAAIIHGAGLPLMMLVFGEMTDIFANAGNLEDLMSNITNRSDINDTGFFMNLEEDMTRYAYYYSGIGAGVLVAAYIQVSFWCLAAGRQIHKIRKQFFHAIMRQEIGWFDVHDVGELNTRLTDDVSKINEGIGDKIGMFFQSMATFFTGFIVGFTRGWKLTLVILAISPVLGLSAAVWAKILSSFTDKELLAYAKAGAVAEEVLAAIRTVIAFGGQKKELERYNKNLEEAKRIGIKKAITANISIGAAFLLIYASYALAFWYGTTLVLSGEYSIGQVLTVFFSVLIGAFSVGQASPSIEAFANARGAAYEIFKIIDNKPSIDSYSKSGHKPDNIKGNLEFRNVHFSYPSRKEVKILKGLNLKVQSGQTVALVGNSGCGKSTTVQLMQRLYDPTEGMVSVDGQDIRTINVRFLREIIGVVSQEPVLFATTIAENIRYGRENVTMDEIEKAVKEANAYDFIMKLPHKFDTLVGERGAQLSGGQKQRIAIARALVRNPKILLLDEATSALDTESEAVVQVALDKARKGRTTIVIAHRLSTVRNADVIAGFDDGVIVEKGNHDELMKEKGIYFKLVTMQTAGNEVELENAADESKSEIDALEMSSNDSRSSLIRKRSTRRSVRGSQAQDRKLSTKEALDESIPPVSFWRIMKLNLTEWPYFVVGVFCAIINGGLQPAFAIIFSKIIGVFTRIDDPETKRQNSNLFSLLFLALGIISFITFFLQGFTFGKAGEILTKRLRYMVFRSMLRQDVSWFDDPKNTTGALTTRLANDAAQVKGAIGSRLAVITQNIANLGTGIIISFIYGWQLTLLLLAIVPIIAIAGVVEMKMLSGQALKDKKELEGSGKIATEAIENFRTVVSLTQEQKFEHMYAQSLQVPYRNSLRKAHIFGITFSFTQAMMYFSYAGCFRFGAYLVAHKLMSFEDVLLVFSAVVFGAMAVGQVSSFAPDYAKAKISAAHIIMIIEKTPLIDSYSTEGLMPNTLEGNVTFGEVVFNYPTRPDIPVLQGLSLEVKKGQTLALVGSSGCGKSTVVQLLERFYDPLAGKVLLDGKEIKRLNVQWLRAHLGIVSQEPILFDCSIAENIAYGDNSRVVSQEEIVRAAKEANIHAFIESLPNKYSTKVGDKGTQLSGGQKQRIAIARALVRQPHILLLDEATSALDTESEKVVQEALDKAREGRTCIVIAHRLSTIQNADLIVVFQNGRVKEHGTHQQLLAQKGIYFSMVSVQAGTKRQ
smiles,measurement,setting,value
CC(C)NCCCn1c(Cc2cc3c(cc2I)OCO3)nc2c(N)nc(F)nc21 [PU-DZ8],P-gp substrate,P-glycoprotein,not a substrate of P-pg
same,whole brain expression of cdk5,[1]; 5 days i.p.,not affected
same,compound levels in brain,"[1]; 5 days i.p., 12 h after last treatment",Pharmacologically relevant levels
same,p35 expression as compared to control,"[1]; 5 days i.p., mice where effects were more prominent",approximately 20%
same,reduction in p35 levels,"[1]; 5 days i.p., whole brain",50%
same,tau phosphorylation at putative cdk5 sites S202/T205 and T212,"[1]; 5 days i.p., whole brain",significant amelioration
same,phosphorylation on T212/S214 (Ab AT-100),[1]; at 50% reduction in p35 levels,almost completely
same,tau phosphorylated at T231 (Ab AT-180),[1]; at a reduction by 50% in p35 expression,No significant effect
same,reduction of tau phosphorylation on T231,[1]; mice where p35 declined to approximately 20% of control,50%
same,solubility,[2],water soluble
same,"toxicity (animal weight, fur appearance, appetite, posture)","[3]; five-times per week i.p., PU24FC1 200 mg/kg or PU-DZ8 75 mg/kg",No toxicity was observed
same,Tau expression and phosphorylation in S1 and P3 fractions,[3]; subcortical brain region,significant reduction in Tau expression and phosphorylation
same,p35 in S1 fraction,[3]; subcortical brain region,p35 reduction
same,Tau phosphorylation on Ser202 (antibody CP13),[4]; 8 h post-administration,alleviation of Tau phosphorylation
same,p35 levels,[4]; 8 h post-administration,significant time-dependent reduction
same,soluble WT Tau expression,[4]; cortical S1,no effect
same,experimentally determined logP,[5],1.53
